Results on four molecules are retold here after patent publication US12121746B2, “Energy augmentation structures, energy emitters or energy collectors containing the same, and their use in methods and systems for treating cell proliferation disorders” (priority 2019, dated 2024).

Where two headings read alike, the source gives them in different places.

For data set [1] the following is noted: cited from earlier work.
Data set [2] has as its system syngeneic 4T1-HER2 tumors. The experiment in a line: In-vivo X-PACT trial on syngeneic tumors. Set-up: species or system BALB/c mice. The note with it: treatment arms with x-ray; 5 μM psoralen (AMT), 100 μg of phosphor; FIG. 54. As for the experimental part: There were 4 arms of the trial: […] […] There were 6-8 mice per arm, and the study was repeated a second time, yielding effective sample sizes of 12-16. […] A consistent x-ray irradiation technique was used for all arms (except saline control) which was 2 Gy delivered at 75 kVp by 30 mA in 3 minutes.

The next data set deals with 4T1. As to the kind of experiment: UV light activated psoralen, Cell-Titer-Glo Luminescence Cell Viability Assay. The format is cell-based, murine. The note with it: psoralen 40 ρM; UV light 0, 0.25, 0.5, 1.0 J/cm^2; N=4; FIG. 51A. How it is done: (§1) Metabolic cell viability was also assessed visually using Methylene blue staining and ATP-induced Luminescence imaging (Cell-Titer-Glo® Luminescence Cell Viability Assay). The luminescence imaging permitted investigation of the cytotoxicity of psoralen activated directly with a UV lamp, and in the absence of phosphors and x-ray radiation. […] The psoralen concentration was 40 ρM.

For the next data set, the system named is KP158B (sarcoma). The data set is described as above. The note with it: psoralen 40 ρM; UV light 0, 0.25, 0.5, 1.0 J/cm^2; N=4; FIG. 51A. The class given is cell-based, murine. As for the experimental part: as §1
For data set [3], the system named is CT2A (murine malignant glioma). The description is as above. The format is cell-based. The note with it: psoralen 40 ρM; UV light 0, 0.25, 0.5, 1.0 J/cm^2; N=4; FIG. 51A. How it is done:
as §1

In the next data set the test system is 4T1-HER2 cells. The note with it: multi-variable regression on 36 independent irradiation experiments; irradiated.
The conditions of data set [4]: in vivo; cited from earlier work.

Procedure for 4T1-HER2 cells: In-vitro X-PACT studies were conducted on cells prepared in the following manner. Cells were incubated in appropriate growing media and buffers before being trypsinized and plated evenly onto twelve (12) well plates for 24 hours. […] The plates were then irradiated with x-rays by placing the plate at a known distance from the x-ray source (e.g., 50 cm). After irradiation the cells were incubated on the plate for 48 hours prior to performing flow cytometry. For compatibility with 96-well Guava Nexin® assay, the remaining cells were again trypsinized (after the 48 hour incubation) and plated onto a 96-well plate. The phosphors used in this evaluation were designated as NP 200 and GTP 4300. […]
Cells plated in 12-well plates, where individual wells in each plate may receive different experimental conditions (e.g. psoralen concentration), but the same x-ray dose (i.e. all wells in a given plate receive the same x-ray dose). The first metric is metabolically viable cell count (or cell viability) determined from the number of whole cells per well as determined using forward scattering (FSC). […] (All wells on a given plate receive the same dose.) The second metric is Annexin V (+) signal, which is the fraction of the metabolically viable cells which expressed a positive Annexin V signal as determined by flow cell cytometry, and include any cells advancing toward early or late apoptotic cell death. […]

As to `Oc1cccc(-c2c3nc(c(-c4cccc(O)c4)c4ccc([nH]4)c(-c4cccc(O)c4)c4nc(c(-c5cccc(O)c5)c5ccc2[nH]5)CC4)C=C3)c1` [Foscan, Tetra (m-hydroxyphenyl) chlorin], in data set [1] (Table 3), the Length of photosensitization was 2 weeks. In addition, in data set [1], the “duration of skin photosensitivity” value is reported as “approximately 2 weeks”.
Turning to `CC(=O)[O-].CC(=O)[O-].CCc1c(CC)c2cc3nc(cnc4cc(OCCOCCOCCOC)c(OCCOCCOCCOC)cc4ncc4nc(cc1[n-]2)C(CCCO)=C4C)C(C)=C3CCCO.O.[Lu+3]` [Lutetium texahyrin, Motexafin lutetium], in data set [1] (in vivo), the Length of photosensitization was 24 to 48 h and the “duration of skin photosensitivity” value was 24 to 48 h.
In the case of `O=c1ccc2cc3ccoc3cc2o1` [psoralen], the “tumor growth effect” value in data set [2] is on record as “slightly higher component effect”. The viable cells entry (in the data set on 4T1; in the data set with KP158B (sarcoma); in data set [3]) was “reduce viable cells” in each case. Besides, the “cytotoxicity (Annexin V signal)” value in the data set on 4T1-HER2 cells was “neither psoralen nor phosphor alone had a strong effect”.
On to Vitamin B12, for which the route of excretion result in data set [4] is listed as “excreted by glomerular filtration”.
